Results reported in patent US10173971B2, “Picolinamides with fungicidal activity” (DOW AGROSCIENCES LLC, priority 2014, dated 2019).
Like-named read-outs stand apart in the source and are kept apart here.

Legend:
[1] = test system: Zymoseptoria tritici; test: Fungicidal activity: leaf blotch of wheat (SEPTTR), wheat seedlings, booth sprayer to run-off or track spray; type: in vivo; settings: for pest or weed control at 121.5 g/ha: Low-Volume Cereal Activity at 121.5 g/H; for pest or weed control at 100 ppm: High-Volume Cereal Activity at 100 ppm
Description: All fungicides were evaluated using the aforementioned method for their activity vs. all target diseases. Wheat leaf blotch and brown rust activity were also evaluated using track spray applications, in which case the fungicides were formulated as EC formulations, containing 0.1% Trycol 5941 in the spray solutions. Wheat plants (variety Yuma) were grown from seed in a greenhouse in 50% mineral soil/50% soil-less Metro mix until the first leaf was fully emerged, with 7-10 seedlings per pot. These plants were inoculated with an aqueous spore suspension of Zymoseptoria tritici either prior to or after fungicide treatments. After inoculation the plants were kept in 100% relative humidity (one day in a dark dew chamber followed by two to three days in a lighted dew chamber at 20° C.) to permit spores to germinate and infect the leaf. The plants were then transferred to a greenhouse set at 20° C. for disease to develop. When disease symptoms were fully expressed on the 1st leaves of untreated plants, infection levels were assessed on a scale of 0 to 100 percent disease severity. Percent disease control was calculated using the ratio of disease severity on treated plants relative to untreated plants.

[2] = test system: Puccinia triticina; test: Fungicidal activity: wheat brown rust (PUCCRT), wheat seedlings, booth sprayer to run-off or track spray; type: in vivo; settings: for pest or weed control at 121.5 g/ha: Low-Volume Cereal Activity at 121.5 g/H; for pest or weed control at 100 ppm: High-Volume Cereal Activity at 100 ppm
Description: All fungicides were evaluated using the aforementioned method for their activity vs. all target diseases. Wheat leaf blotch and brown rust activity were also evaluated using track spray applications, in which case the fungicides were formulated as EC formulations, containing 0.1% Trycol 5941 in the spray solutions. Wheat plants (variety Yuma) were grown from seed in a greenhouse in 50% mineral soil/50% soil-less Metro mix until the first leaf was fully emerged, with 7-10 seedlings per pot. These plants were inoculated with an aqueous spore suspension of Puccinia triticina either prior to or after fungicide treatments. […] The plants were then transferred to a greenhouse set at 24° C. for disease to develop. Fungicide formulation, application and disease assessment followed the procedures as described in the Example A.

[3] = 24 h, 1 Day Protectant, read-out: SEPTTR 1DP
[4] = 72 h, 3 Day Curative, read-out: SEPTTR 3DC
[5] = 24 h, 1 Day Protectant, read-out: PUCCRT 1DP
[6] = 72 h, 3 Day Curative, read-out: PUCCRT 3DC
[7] = 3DC (Day Curative), read-out: SEPTTR 3DC
[8] = 3DC (Day Curative), read-out: PUCCRT 3DC

Compound	pest or weed control at 121.5 g/ha [1, 3] [%]	pest or weed control at 121.5 g/ha [1, 4] [%]	pest or weed control at 121.5 g/ha [2, 5] [%]	pest or weed control at 121.5 g/ha [2, 6] [%]	pest or weed control at 100 ppm [1, 7] [%]	pest or weed control at 100 ppm [2, 8] [%]	pest or weed control at 100 ppm [1, 3] [%]	pest or weed control at 100 ppm [2, 5] [%]
COc1ccnc(C(=O)N[C@@H](C)C(=O)O[C@@H](C)[C@@H](COCc2ccccc2)Cc2ccccc2)c1OC(C)=O [compound 227]	80 to 100	0 to 80	0 to 80	0 to 80				
COc1ccnc(C(=O)N[C@@H](C)C(=O)O[C@@H](C)[C@H](Cc2ccc(Cl)cc2)c2ccccc2)c1OCOC(C)=O [compound 203]	80 to 100	80 to 100	80 to 100	0 to 80				
CCCC[C@H](c1ccccc1)[C@H](C)OC(=O)[C@H](C)NC(=O)c1nccc(OC)c1O [compound 120]					0 to 80	0 to 80		
CCCO[C@@H](CC)[C@@H](Cc1ccccc1)[C@H](C)OC(=O)[C@H](C)NC(=O)c1nccc(OC)c1OCOC(C)=O [compound 168]	80 to 100	0 to 80	80 to 100	80 to 100	80 to 100	80 to 100	80 to 100	80 to 100
CCOCC(=O)OCOc1c(OC)ccnc1C(=O)N[C@@H](C)C(=O)O[C@@H](C)[C@@H](COC)Cc1ccc(F)cc1 [compound 237]	0 to 80	0 to 80	80 to 100	80 to 100				
CCCO[C@H](CC)[C@@H](Cc1ccccc1)[C@H](C)OC(=O)[C@H](C)NC(=O)c1nccc(OC)c1O [compound 92]					80 to 100	80 to 100	80 to 100	80 to 100
COc1ccnc(C(=O)N[C@@H](C)C(=O)O[C@@H](C)[C@H](Cc2ccc(Cl)cc2)c2ccccc2)c1O [compound 121]					0 to 80	0 to 80	80 to 100	80 to 100
COc1ccnc(C(=O)N[C@@H](C)C(=O)O[C@@H](C)[C@H](CCC(C)C)c2ccccc2)c1OC(=O)C(C)C [compound 211]	80 to 100	80 to 100	0 to 80					
CCOC[C@H](Oc1ccc(C)cc1)[C@@H](Cc1ccc(F)cc1)[C@H](C)OC(=O)[C@H](C)NC(=O)c1nccc(OC)c1OCOC(C)=O [compound 177]	80 to 100	0 to 80	80 to 100	0 to 80				
COc1cccc(CC(Cc2cccc(OC)c2)[C@H](C)OC(=O)[C@H](C)NC(=O)c2nccc(OC)c2OCOC(C)=O)c1 [compound 274]	0 to 80		80 to 100	0 to 80				
COc1ccnc(C(=O)N[C@@H](C)C(=O)O[C@@H](C)[C@H](Cc2ccc(Cl)c(Cl)c2)c2ccccc2)c1OC(C)=O [compound 216]	80 to 100	0 to 80	0 to 80	0 to 80				
COc1ccnc(C(=O)N[C@@H](C)C(=O)O[C@@H](C)[C@@H](COc2ccc(Cl)cc2Cl)Cc2ccccc2)c1OCOC(C)=O [compound 209]	0 to 80	0 to 80	0 to 80					
CCCOC[C@@H](Cc1ccccc1)[C@H](C)OC(=O)CNC(=O)c1nccc(OC)c1O [compound 104]					0 to 80	0 to 80		
CCCOC(C)(C)[C@@H](Cc1ccc(OC)cc1)[C@H](C)OC(=O)[C@H](C)NC(=O)c1nccc(OC)c1OCOC(C)=O [compound 257]		0 to 80	80 to 100					
COc1ccnc(C(=O)N[C@@H](C)C(=O)O[C@@H](C)[C@H](Cc2ccc(F)cc2)C(C)(C)OC)c1O [compound 136]					80 to 100	0 to 80		0 to 80
COc1ccnc(C(=O)N[C@@H](C)C(=O)O[C@@H](C)[C@@H](COCc2ccccc2)Cc2ccccc2)c1O [compound 132]					80 to 100	80 to 100	0 to 80	80 to 100
